Tests used:
Pantetheinase (vanin) = assay: Human Whole Blood assay; assay type: cell-based; details: pantethine substrate, pantothenic acid formation by RapidFire MS, read-out: HWB IC50
Experimental: Pantetheinase (vanin) converts panteheine into pantothenic acid and cysteamine. Accordingly, in the described protocol vanin activity is quantified by formation of pantothenic acid after pantetheine supplementation via pantethine. The assay is applicable to identify vanin inhibitors. Compound stocks are dissolved in DMSO at 10 mM. Further dilutions are performed in RPMI 1640 medium (Gibco, #A-10491-01) and final concentrations in the assay are 0.032 nM-500 nM.
Human blood is drawn into a blood bag (1% heparin, 50 I.E./mL). Blood is aliquoted into cavities of 96-deep-well plates at 290 μL and mixed with 10 μL compound solution or vehicle (30 sec at 1400 rpm on a shaker). Equilibration follows at room temperature, 250 rpm and for 30 min. The assay is starts by adding 10 μL of substrate solution (20 μM pantethine in 1 mM DTT, 0.0025% Brij-35, 50 mM HEPES, pH7.5) to each well, except for some blank wells which receive […] substrate buffer (1 mM DTT, 0.0025% Brij-35, 50 mM HEPES, pH7.5) only. Samples are thoroughly shaken (30 sec, 1400 rpm) and reaction is allowed to take place at room temperature, 250 rpm and for 5 min. The reaction is stopped by addition of a vanin tool inhibitor in excess (BI-1 total conc. 10 μM). Centrifugation of the plate follows at 4° C., 665 G for 10 min. Then the blood plasma samples (100 μL) are transferred into another 96-deep-well plate and proteins are precipitated (5 min on ice) by adding 100 μL of ice cold precipitation solution (1 μM labelled pantothenic acid (di-β-alanine-13C6,15N2 calcium salt, Sigma, #705837) in acetonitrile). Afterwards the plate is centrifuged (4° C., 3220 G, 10 min) and supernatants (50 μL) are collected into another 96-deep-well plate and mixed (10 sec, 1400 rpm) with 150 μL ice cold formic acid (0.1%, Carl Roth GmbH+Co.KG, #CP03.1). The formation of pantothenic acid is detected by RapidFire Mass Spectrometry. A TripleQuad 6500+ (ABSciex, Germany) is equipped with an LC-1290 system, a RapidFire autosampler (Agilent, Germany) and a C18 cartridge Type C 12 μL (Agilent Cat #G9526-80000). Mobile phase A is consisting of 0.09% formic acid and 0.01% trifluoroacetic acid in water and mobile phase B of 0.09% formic acid and 0.01% trifluoroacetic acid in acetonitrile/methanol/water=47.5/47.5/5.

[1] = biological target: FLAG-tagged Vanin-1 (AA 22-493, T26I) (Homo sapiens (Human), UniProt O95497, T26I); assay: Vanin-1 enzymatic assay; assay type: biochemical; details: 0.1 nM Vanin-1, 3 μM D-pantethine, pantothenic acid formation by RapidFire MS; geometric mean if multiple measurements; read-out: VNN 1 IC50
Experimental: The test compounds are dissolved in 100% DMSO at a concentration of 10 mM and in a first step diluted in DMSO to a concentration of 5 mM, followed by serial dilution steps in 100% DMSO. Dilution factor and number of dilution steps may vary according to needs. Typically 8 different concentrations by 1:5 dilutions are prepared, a further intermediate dilutions of the substances is carried out with assay buffer resulting in 1% final DMSO concentration in the assay.
0.1 nM of FLAG-tagged Vanin-1 (AA 22-493, T26I, produced internally) and test compounds are incubated at room temperature for 20 minutes in assay buffer (1 mM DTT, 0.0025% Brij-35, 50 mM HEPES, pH7.5). D-Pantethine (Sigma, Cat #P2125-5G) in assay buffer is added (final concentration 3 μM) and incubated for additional 30 minutes at room temperature. Total assay volume typically is 40 μl but might be adjusted according to needs. Reaction is stopped by adding equal volume of stop solution as the reaction mixture to reach 100 nM HD-pantothenic acid (as an internal standard) and 1% TFA. Assay plates are centrifuged for 2 minutes and the formation of pantothenic acid is detected by RapidFire Mass Spectrometry (mobile phase A: 0.1% formic acid and 0.01% trifluoroacetic acid in water; mobile phase B: 47.5% acetonitrile, 47.5% methanol, 0.1% formic acid and 0.01% trifluoroacetic acid in water) using a C18, 12 μL cartridge (Agilent Cat #G9205A).
The values given in Table I result from measurements of one or more samples. In case of multiple measurements the geometric mean values are given.

Sequence of FLAG-tagged Vanin-1 (AA 22-493, T26I) (O95497 22-493 T26I): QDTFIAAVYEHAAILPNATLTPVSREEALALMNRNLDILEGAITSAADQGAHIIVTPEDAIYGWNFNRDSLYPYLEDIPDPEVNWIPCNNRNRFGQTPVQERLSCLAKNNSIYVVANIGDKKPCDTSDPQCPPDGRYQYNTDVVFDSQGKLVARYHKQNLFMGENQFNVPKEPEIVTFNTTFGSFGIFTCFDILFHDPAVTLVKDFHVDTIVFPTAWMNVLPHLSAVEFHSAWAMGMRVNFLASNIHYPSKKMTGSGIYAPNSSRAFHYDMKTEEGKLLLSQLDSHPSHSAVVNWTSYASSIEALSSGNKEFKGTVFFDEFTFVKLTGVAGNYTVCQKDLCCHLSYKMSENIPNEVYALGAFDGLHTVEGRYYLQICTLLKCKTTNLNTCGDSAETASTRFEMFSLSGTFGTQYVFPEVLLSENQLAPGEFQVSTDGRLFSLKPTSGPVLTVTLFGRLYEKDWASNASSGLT

SMILES | IC50 (Pantetheinase (vanin)) [nM] | IC50 [1] [nM]
CC1(C#N)CCN(C(=O)c2ccc(NC(C)(C)C)nc2)C1 (single isomer, unassigned) [Example 7, 1-[6-(tert-Butylamino)pyridine-3-carbonyl]-3-methylpyrrolidine-3-carbonitrile] | 3.9 | 0.3
CN(C(=O)C1CCC1)[C@H]1CCN(C(=O)c2ccc(NC(C)(C)C)nc2)C1 [Example 1.1, N-[(3S)-1-[6-(tert-Butylamino)pyridine-3-carbonyl]pyrrolidin-3-yl]-N-methylcyclobutanecarboxamide] | 4.3 | 0.2
CN(C(=O)C1CC(F)(F)C1)[C@H]1CCN(C(=O)c2ccc(NC(C)(C)C)nc2)C1 [Example 1.2] | 3.6 | 0.2
CN(C(=O)[C@@H]1CCCO1)[C@H]1CCN(C(=O)c2ccc(NC(C)(C)C)nc2)C1 [Example 1.3] | 2.7 | 0.3
CN(C(=O)c1ccc(Cl)s1)[C@H]1CCN(C(=O)c2ccc(NC(C)(C)C)nc2)C1 [Example 1.4] | 25.2 | 0.3
CN(C(=O)C1CC1)[C@H]1CCN(C(=O)c2ccc(NC(C)(C)C)nc2)C1 [Example 1.5] | 4.2 | 0.3
CC(C)(C)Nc1ccc(C(=O)N2CC[C@H](N3CCOC3=O)C2)cn1 [Example 1.6] | 4 | 0.3
CN(C(=O)c1cc(C(F)(F)F)nn1C)[C@H]1CCN(C(=O)c2ccc(NC(C)(C)C)nc2)C1 [Example 1.7] | 5 | 0.3
CN(C(=O)C1(C#N)CC1)[C@H]1CCN(C(=O)c2ccc(NC(C)(C)C)nc2)C1 [Example 1.8] | 5.8 | 0.3
CC(C)(C)Nc1ccc(C(=O)N2CC[C@H](N3CCCC3=O)C2)cn1 [Example 1.9] | 3.1 | 0.4
CN(C(=O)C1CCOC1)[C@H]1CCN(C(=O)c2ccc(NC(C)(C)C)nc2)C1 (some centres unmarked) [Example 1.10] |  | 0.4
CN(C(=O)c1ccc(F)cc1)[C@H]1CCN(C(=O)c2ccc(NC(C)(C)C)nc2)C1 [Example 1.11] | 7.5 | 0.4
Cc1cc(C(=O)N(C)[C@H]2CCN(C(=O)c3ccc(NC(C)(C)C)nc3)C2)[nH]n1 [Example 1.12] | 9.7 | 0.4
CN(c1ncccn1)[C@H]1CCN(C(=O)c2ccc(NC(C)(C)C)nc2)C1 [Example 1.13] | 12.6 | 0.4
CC(C)(C)Nc1ccc(C(=O)N2CC[C@H](N3CCCCC3=O)C2)cn1 [Example 1.14] | 12.5 | 0.8
CN(C(=O)[C@H]1CCCO1)[C@H]1CCN(C(=O)c2ccc(NC(C)(C)C)nc2)C1 [Example 1.15] |  | 1
CN(C(=O)CN1CCOCC1)[C@H]1CCN(C(=O)c2ccc(NC(C)(C)C)nc2)C1 [Example 1.16] |  | 1.3
CC1CN([C@H]2CCN(C(=O)c3ccc(NC(C)(C)C)nc3)C2)C(=O)O1 (stereo partly drawn) [Example 6, 3-[(3S)-1-[6-(tert-Butylamino)pyridine-3-carbonyl]pyrrolidin-3-yl]-5-methyl-1,3-oxazolidin-2-one] |  | 1.6
CC(C)(C)Nc1ccc(C(=O)N2CC(C)(c3ccccn3)C2)cn1 [Example 8, N-tert-Butyl-5-[3-methyl-3-(pyridin-2-yl)azetidine-1-carbonyl]pyridin-2-amine] | 2.7 | 0.3

Now from value to molecule:

IC50 (Pantetheinase (vanin)) [nM] | IC50 [1] [nM] | SMILES
4.6 | 0.3 | CN(C(=O)C1CC1)[C@H]1CCN(C(=O)c2ccc(NC3(C)CCC3)nc2)C1 [Example 2.1, N-Methyl-N-[(3S)-1-{6-[(1-methylcyclobutyl)amino]pyridine-3-carbonyl}pyrrolidin-3-yl]cyclopropanecarboxamide]
7.7 | 0.4 | CC(=O)N(C)[C@H]1CCN(C(=O)c2ccc(NC(C)(C)C(C)C)nc2)C1 [Example 2.2]
 | 0.7 | CN(C(=O)C1CC1)[C@H]1CCN(C(=O)c2ccc(NC3(C)CCCC3)nc2)C1 [Example 2.3]
 | 1.7 | CC1(Nc2ccc(C(=O)N3CC[C@H](N4CCCC4=O)C3)cn2)CCCCC1 [Example 2.4]
 | 7.3 | CN(C(=O)C1CC1)[C@H]1CCN(C(=O)c2ccc(NC3(C)CCOCC3)nc2)C1 [Example 2.5]
9.2 | 0.4 | CN(C(=O)C1CC1)[C@H]1CCN(C(=O)c2ccc(NC34CC(C3)C4)nc2)C1 [Example 2.6]
1.6 | 0.2 | CC(=O)N(C)[C@H]1CCN(C(=O)c2ccc(NC(C)(C)CCO)nc2)C1 [Example 3.1, N-[(3S)-1-{6-[(4-Hydroxy-2-methylbutan-2-yl)amino]pyridine-3-carbonyl}pyrrolidin-3-yl]-N-methylacetamide]
3.1 | 0.2 | CCC(C)(C)Nc1ccc(C(=O)N2CC[C@H](N(C)C(C)=O)C2)cn1 [Example 3.2]
8.7 | 0.4 | CC(=O)N(C)[C@H]1CCN(C(=O)c2ccc(NC(C)(C)Cc3ccc(F)cc3)nc2)C1 [Example 3.3]
 | 2.1 | CC(=O)N(C)[C@H]1CCN(C(=O)c2ccc(NC(C)(C)CCn3cncn3)nc2)C1 [Example 3.4]
3.2 | 0.3 | CN(C(=O)N1CCOCC1)[C@H]1CCN(C(=O)c2ccc(NC(C)(C)C)nc2)C1 [Example 4.1, N-[(3S)-1-[6-(tert-Butylamino)pyridine-3-carbonyl]pyrrolidin-3-yl]-N-methylmorpholine-4-carboxamide]
 | 1.2 | CN1CCN(C(=O)N(C)[C@H]2CCN(C(=O)c3ccc(NC(C)(C)C)nc3)C2)CC1 [Example 4.2]
3.2 | 0.5 | CC(=O)N(C)[C@H]1CCN(C(=O)c2ccc(NC(C)(C)C)nc2)C1 [Example 5.1, N-[(3S)-1-[6-(tert-Butylamino)pyridine-3-carbonyl]pyrrolidin-3-yl]-N-methylacetamide]
267 |  | CC(=O)N(C)[C@@H]1CCN(C(=O)c2ccc(NC(C)(C)C)nc2)C1 [Example 5.2]
